Test results as given in the NIST ThermoML archive (doi:10.1021/je8003595).
± gives the expanded uncertainty stated by the source.

Assay: mn = molality of the nth substance listed, in mol/kg
Conditions: 101 kPa, Liquid; for viscosity: Capillary tube (Ostwald / Ubbelohde) method

Molecule `O=C(Oc1ccccc1)c1ccccc1O` [phenyl salicylate] + CC#N has a viscosity (293.15 K, m1 = 0.0096) of 0.3086 ± 0.0065 mPa·s, a viscosity (293.15 K, m1 = 0.0128) of 0.3087 ± 0.0065 mPa·s and a viscosity (293.15 K, m1 = 0.016) of 0.3088 ± 0.0065 mPa·s. For the same molecule, the viscosity (293.15 K, m1 = 0.0192) was 0.3091 ± 0.0065 mPa·s, the viscosity (293.15 K, m1 = 0.0224) was 0.3092 ± 0.0065 mPa·s and the viscosity (293.15 K, m1 = 0.0257) was 0.3094 ± 0.0065 mPa·s. For the same molecule, the viscosity (293.15 K, m1 = 0.0321) was 0.3097 ± 0.0065 mPa·s, the mass density (293.15 K, m1 = 0.0096) was 783.179 ± 0.5 kg/m3 and the mass density (293.15 K, m1 = 0.0128) was 783.379 ± 0.5 kg/m3. The mass density (293.15 K, m1 = 0.016) was 783.559 ± 0.5 kg/m3, the mass density (293.15 K, m1 = 0.0192) was 783.709 ± 0.5 kg/m3 and the mass density (293.15 K, m1 = 0.0224) was 783.871 ± 0.5 kg/m3. For the same molecule, the mass density (293.15 K, m1 = 0.0257) was 784.031 ± 0.5 kg/m3, the mass density (293.15 K, m1 = 0.0321) was 784.222 ± 0.49 kg/m3 and the viscosity (298.15 K, m1 = 0.0097) was 0.2867 ± 0.0065 mPa·s. It also gave a viscosity (298.15 K, m1 = 0.0129) of 0.2869 ± 0.0065 mPa·s, a viscosity (298.15 K, m1 = 0.0161) of 0.2871 ± 0.0065 mPa·s and a viscosity (298.15 K, m1 = 0.0194) of 0.2873 ± 0.0065 mPa·s. It also gave a viscosity (298.15 K, m1 = 0.0226) of 0.2875 ± 0.0065 mPa·s, a viscosity (298.15 K, m1 = 0.0258) of 0.2876 ± 0.0065 mPa·s and a viscosity (298.15 K, m1 = 0.0323) of 0.288 ± 0.0065 mPa·s. It also gave a mass density (298.15 K, m1 = 0.0097) of 777.771 ± 0.51 kg/m3, a mass density (298.15 K, m1 = 0.0129) of 777.981 ± 0.51 kg/m3 and a mass density (298.15 K, m1 = 0.0161) of 778.151 ± 0.51 kg/m3. The mass density (298.15 K, m1 = 0.0194) was 778.309 ± 0.51 kg/m3, the mass density (298.15 K, m1 = 0.0226) was 778.451 ± 0.51 kg/m3 and the mass density (298.15 K, m1 = 0.0258) was 778.609 ± 0.5 kg/m3. The mass density (298.15 K, m1 = 0.0323) was 778.835 ± 0.5 kg/m3, the viscosity (303.15 K, m1 = 0.0097) was 0.2649 ± 0.0064 mPa·s and the viscosity (303.15 K, m1 = 0.013) was 0.265 ± 0.0064 mPa·s. It also gave a viscosity (303.15 K, m1 = 0.0162) of 0.2652 ± 0.0064 mPa·s, a viscosity (303.15 K, m1 = 0.0195) of 0.2653 ± 0.0064 mPa·s and a viscosity (303.15 K, m1 = 0.0227) of 0.2655 ± 0.0064 mPa·s. The viscosity (303.15 K, m1 = 0.026) was 0.2656 ± 0.0064 mPa·s, the viscosity (303.15 K, m1 = 0.0326) was 0.2659 ± 0.0064 mPa·s and the mass density (303.15 K, m1 = 0.0097) was 772.334 ± 0.52 kg/m3. The mass density (303.15 K, m1 = 0.013) was 772.545 ± 0.52 kg/m3, the mass density (303.15 K, m1 = 0.0162) was 772.724 ± 0.51 kg/m3 and the mass density (303.15 K, m1 = 0.0195) was 772.856 ± 0.51 kg/m3. It also gave a mass density (303.15 K, m1 = 0.0227) of 773.025 ± 0.51 kg/m3, a mass density (303.15 K, m1 = 0.026) of 773.165 ± 0.51 kg/m3 and a mass density (303.15 K, m1 = 0.0326) of 773.351 ± 0.51 kg/m3. The viscosity (308.15 K, m1 = 0.0098) was 0.2453 ± 0.0064 mPa·s, the viscosity (308.15 K, m1 = 0.0131) was 0.2455 ± 0.0064 mPa·s and the viscosity (308.15 K, m1 = 0.0164) was 0.2457 ± 0.0064 mPa·s. For the same molecule, the viscosity (308.15 K, m1 = 0.0197) was 0.2459 ± 0.0064 mPa·s, the viscosity (308.15 K, m1 = 0.023) was 0.2461 ± 0.0064 mPa·s and the viscosity (308.15 K, m1 = 0.0263) was 0.2463 ± 0.0064 mPa·s. For the same molecule, the viscosity (308.15 K, m1 = 0.0329) was 0.2466 ± 0.0064 mPa·s, the mass density (308.15 K, m1 = 0.0098) was 766.875 ± 0.52 kg/m3 and the mass density (308.15 K, m1 = 0.0131) was 767.071 ± 0.52 kg/m3. It also gave a mass density (308.15 K, m1 = 0.0164) of 767.241 ± 0.52 kg/m3, a mass density (308.15 K, m1 = 0.0197) of 767.385 ± 0.52 kg/m3 and a mass density (308.15 K, m1 = 0.023) of 767.558 ± 0.52 kg/m3. The mass density (308.15 K, m1 = 0.0263) was 767.695 ± 0.52 kg/m3, the mass density (308.15 K, m1 = 0.0329) was 767.859 ± 0.52 kg/m3 and the viscosity (310.15 K, m1 = 0.0098) was 0.238 ± 0.0064 mPa·s. For the same molecule, the viscosity (310.15 K, m1 = 0.0131) was 0.2381 ± 0.0064 mPa·s, the viscosity (310.15 K, m1 = 0.0164) was 0.2382 ± 0.0064 mPa·s and the viscosity (310.15 K, m1 = 0.0197) was 0.2384 ± 0.0064 mPa·s. It also gave a viscosity (310.15 K, m1 = 0.023) of 0.2385 ± 0.0064 mPa·s, a viscosity (310.15 K, m1 = 0.0263) of 0.2386 ± 0.0064 mPa·s and a viscosity (310.15 K, m1 = 0.0329) of 0.2388 ± 0.0064 mPa·s. The mass density (310.15 K, m1 = 0.0098) was 764.642 ± 0.53 kg/m3, the mass density (310.15 K, m1 = 0.0131) was 764.835 ± 0.53 kg/m3 and the mass density (310.15 K, m1 = 0.0164) was 765.015 ± 0.53 kg/m3. For the same molecule, the mass density (310.15 K, m1 = 0.0197) was 765.153 ± 0.53 kg/m3, the mass density (310.15 K, m1 = 0.023) was 765.331 ± 0.53 kg/m3 and the mass density (310.15 K, m1 = 0.0263) was 765.465 ± 0.52 kg/m3. The mass density (310.15 K, m1 = 0.0329) was 765.629 ± 0.52 kg/m3, the viscosity (313.15 K, m1 = 0.0099) was 0.2272 ± 0.0063 mPa·s and the viscosity (313.15 K, m1 = 0.0132) was 0.2274 ± 0.0063 mPa·s. It also gave a viscosity (313.15 K, m1 = 0.0165) of 0.2276 ± 0.0063 mPa·s, a viscosity (313.15 K, m1 = 0.0198) of 0.2278 ± 0.0063 mPa·s and a viscosity (313.15 K, m1 = 0.0231) of 0.2279 ± 0.0063 mPa·s. The viscosity (313.15 K, m1 = 0.0264) was 0.228 ± 0.0063 mPa·s, the viscosity (313.15 K, m1 = 0.033) was 0.2282 ± 0.0063 mPa·s and the mass density (313.15 K, m1 = 0.0099) was 761.351 ± 0.53 kg/m3. For the same molecule, the mass density (313.15 K, m1 = 0.0132) was 761.545 ± 0.53 kg/m3, the mass density (313.15 K, m1 = 0.0165) was 761.711 ± 0.53 kg/m3 and the mass density (313.15 K, m1 = 0.0198) was 761.849 ± 0.53 kg/m3. The mass density (313.15 K, m1 = 0.0231) was 762.019 ± 0.53 kg/m3, the mass density (313.15 K, m1 = 0.0264) was 762.135 ± 0.53 kg/m3 and the mass density (313.15 K, m1 = 0.033) was 762.341 ± 0.53 kg/m3.
